Data reported in article PMC7353089, “The Hepatotoxicity of Alantolactone and Germacrone: Their Influence on Cholesterol and Lipid Metabolism in Differentiated HepaRG Cells” (Nutrients, 2020).

Assays:
Assay in all cases: RT-qPCR mRNA expression in dHepaRG cells
Format in all cases: cell-based, human
HMGCR mRNA = conditions: single exposure, the highest concentration
Protocol: The mRNA and protein expression changes were measured after a single administration of ALA and GER. Three concentrations were selected for each compound (non-toxic, non-toxic/slightly toxic and toxic). The cholesterol level of the dHepaRG cells was measured after a multiple exposure of the highest non-toxic concentrations of tested compounds. ATL (30 µM) and GER (100 µM) were administered four times every 24 h. The expression changes of genes and proteins related to cholesterol metabolism were measured in both single and multiple exposure experiments.
All treatments were performed in triplicates and every experiment was performed three times. The cells were washed twice with ice cold phosphate-buffered saline (PBS), scrapped and stored at −80 °C until use. Total RNA from cells was isolated using TriReagent according to the manufacturer’s instructions (Biotech, Prague, Czech Republic). The purified RNA was dissolved in 40 µL of diethyl pyrocarbonate (DEPC)-treated water (0.01% DEPC in HPLC water, autoclaved) and stored at −80 °C. The measurement of absorbance at 260 and 280 nm using the NanoDrop ND-1000 UV–VIS Spectrophotometer (Thermo Fisher Scientific, Pardubice, Czech Republic) was used to determine RNA yields and purity. Subsequently, the RNA (4 µg) was treated with 2 U of DNase I (New England Biolabs, Ipswich, MA, USA) in a final volume of 30 µL for 25 min at 37 °C, 1.5 µL of 0.1 M ethylenediaminetetraacetic acid was added and the DNAse was inactivated by heat (5 min at 75 °C). The solution was diluted to a concentration of 0.1 µg/µL. The DNAse treated RNA was stored at −80 °C until further analyses. […] Fluorescence data were recorded at the end of each amplification step. Relative expression levels of the target genes were calculated as fold changes in triplicates for each group using the 2^−ΔΔCt method by normalization to the geometric mean of the Ct values of Sdha and Ywhaz, which were used as reference genes.

ALB mRNA = conditions: after 6 h of exposure
Protocol: (§1) Three concentrations were selected for each compound (non-toxic, non-toxic/slightly toxic and toxic). […] The expression changes of genes and proteins related to cholesterol metabolism were measured in both single and multiple exposure experiments.
(§2) All treatments were performed in triplicates and every experiment was performed three times. The cells were washed twice with ice cold phosphate-buffered saline (PBS), scrapped and stored at −80 °C until use. Total RNA from cells was isolated using TriReagent according to the manufacturer’s instructions (Biotech, Prague, Czech Republic). The purified RNA was dissolved in 40 µL of diethyl pyrocarbonate (DEPC)-treated water (0.01% DEPC in HPLC water, autoclaved) and stored at −80 °C. The measurement of absorbance at 260 and 280 nm using the NanoDrop ND-1000 UV–VIS Spectrophotometer (Thermo Fisher Scientific, Pardubice, Czech Republic) was used to determine RNA yields and purity. […] Fluorescence data were recorded at the end of each amplification step. Relative expression levels of the target genes were calculated as fold changes in triplicates for each group using the 2^−ΔΔCt method [28] by normalization to the geometric mean of the Ct values of Sdha and Ywhaz, which were used as reference genes.

A1AT mRNA = conditions: after 24 h
Protocol: as §1, §2

| Structure (SMILES) | HMGCR mRNA level (HMGCR mRNA; 6-h exposure) | HMGCR mRNA level (HMGCR mRNA; 12- and 24-h exposure) | ALB mRNA expression (ALB mRNA) | A1AT mRNA expression (A1AT mRNA) |
| --- | --- | --- | --- | --- |
| C=C1C(=O)O[C@@H]2C[C@@]3(C)CCC[C@H](C)C3=C[C@H]12 [ATL, alantolactone] | induction | decreased level |  |  |
| CC(C)=C1C/C=C(\C)CC/C=C(\C)CC1=O [GER, germacrone] |  |  | induced | inhibited |
